Assays:
ABUTH [1] = assay: Pre-emergence herbicidal action against ABUTH; format: in vivo, Abutilon theophrasti; settings: for Pre-emergence action against ABUTH (herbicidal activity): 80 g/ha, scored visually after 3 weeks vs untreated controls (100% = plants have died, 0% = like control plants); for Pre-emergence action against ABUTH (herbicidal activity in percent): dosage 20 g/ha, scored visually after 3 weeks vs untreated controls, 100% = plants have died, 0% = like control plants
Method in brief: (§1)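 Pre-emergence soil-surface spray of formulated compound (WP or EC; 600 to 800 l/ha; 0.2% wetting agent) over seeds sown in sandy loam. After 3 weeks under greenhouse conditions, damage is estimated visually in percent against untreated plants.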

ALOMY [2] = assay: Pre-emergence herbicidal action against ALOMY; format: in vivo, Alopecurus myosuroides; settings: 80 g/ha, pre-emergence, scored visually after 3 weeks vs untreated controls (100% = plants have died, 0% = like control plants)
Method in brief: as §1

AMARE [3] = assay: Pre-emergence herbicidal action against AMARE; format: in vivo, Amaranthus retroflexus
Method in brief: as §1

AVEFA [4] = assay: Pre-emergence herbicidal action against AVEFA; format: in vivo, Avena fatua; settings: 80 g/ha, pre-emergence
Method in brief: as §1

ECHCG [5] = assay: Pre-emergence herbicidal action against ECHCG; format: in vivo, Echinochloa crus-galli; settings: 80 g/ha
Method in brief: as §1

MATIN [6] = assay: Pre-emergence herbicidal action against MATIN; format: in vivo, Matricaria inodora
Method in brief: as §1

PHBPU [7] = assay: Pre-emergence herbicidal action against PHBPU; format: in vivo, Pharbitis purpurea; settings: dosage 80 g/ha
Method in brief: as §1

POLCO = assay: Pre-emergence herbicidal action against POLCO; format: in vivo, Polygonum convolvulus
Method in brief: as §1

SETVI [8] = assay: Pre-emergence herbicidal action against SETVI; format: in vivo, Setaria viridis
Method in brief: as §1

VIOTR [9] = assay: Pre-emergence herbicidal action against VIOTR; format: in vivo, Viola tricolor
Method in brief: as §1

DIGSA [10] = assay: Pre-emergence herbicidal action against DIGSA; format: in vivo, Digitaria sanguinalis
Method in brief: as §1

ABUTH [11] = assay: Post-emergence herbicidal action against ABUTH; format: in vivo, Abutilon theophrasti; settings: visual assessment about 3 weeks after treatment vs untreated controls
Method in brief: (§2)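 Spray, one-leaf stage: WP or EC compound in water, 600–800 l/ha, 0.2% wetting agent. Plants held about 3 weeks in the greenhouse, then visually rated in percent of kill compared with untreated controls.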

ALOMY [12] = assay: Post-emergence herbicidal action against ALOMY; format: in vivo, Alopecurus myosuroides; settings: dosage 20 g/ha, visual assessment about 3 weeks after treatment vs untreated controls
Method in brief: as §2

AMARE [13] = assay: Post-emergence herbicidal action against AMARE; format: in vivo, Amaranthus retroflexus; settings: 20 g/ha, visual assessment about 3 weeks after treatment, 100% = plants have died, 0% = like control plants
Method in brief: as §2

AVEFA [14] = assay: Post-emergence herbicidal action against AVEFA; format: in vivo, Avena fatua; settings: 20 g/ha, visual assessment about 3 weeks after treatment, 100% = plants have died, 0% = like control plants
Method in brief: as §2

ECHCG [15] = assay: Post-emergence herbicidal action against ECHCG; format: in vivo, Echinochloa crus-galli
Method in brief: as §2

MATIN [16] = assay: Post-emergence herbicidal action against MATIN; format: in vivo, Matricaria inodora
Method in brief: as §2

PHBPU [17] = assay: Post-emergence herbicidal action against PHBPU; format: in vivo, Pharbitis purpurea
Method in brief: as §2

VERPE [18] = assay: Post-emergence herbicidal action against VERPE; format: in vivo, Veronica persica
Method in brief: as §2

DIGSA [19] = assay: Post-emergence herbicidal action against DIGSA; format: in vivo, Digitaria sanguinalis; settings: 20 g/ha
Method in brief: as §2

VERPE [20] = assay: Pre-emergence herbicidal action against VERPE; format: in vivo, Veronica persica; settings: dosage 80 g/ha
Method in brief: as §1

SETVI [21] = assay: Post-emergence herbicidal action against SETVI; format: in vivo, Setaria viridis
Method in brief: as §2

VIOTR [22] = assay: Post-emergence herbicidal action against VIOTR; format: in vivo, Viola tricolor
Method in brief: as §2

[23] = 20 g/ha, scored visually after 3 weeks vs untreated controls, 100% = plants have died, 0% = like control plants
[24] = 80 g/ha, scored visually after 3 weeks vs untreated controls (100% = plants have died, 0% = like control plants)

Compound	Pre-emergence action against ABUTH (herbicidal activity) (ABUTH [1]) [%]	Pre-emergence action against ABUTH (herbicidal activity in percent) (ABUTH [1]) [%]	Pre-emergence action against ALOMY (herbicidal activity) (ALOMY [2]) [%]	Pre-emergence action against AMARE in % (AMARE [3]; [23]) [%]	Pre-emergence action against AMARE in % (AMARE [3]; [24]) [%]	Pre-emergence action against ECHCG in % (ECHCG [5]) [%]	Pre-emergence action against MATIN in % (MATIN [6]; dosage 20 g/ha) [%]	Pre-emergence action against MATIN in % (MATIN [6]; dosage 80 g/ha) [%]	Pre-emergence action against PHBPU in % (PHBPU [7]) [%]	Pre-emergence action against POLCO in % (POLCO; dosage 80 g/ha) [%]	Pre-emergence action against SETVI in % (SETVI [8]; dosage 80 g/ha) [%]	Pre-emergence action against VIOTR in % (VIOTR [9]; dosage 20 g/ha) [%]	Pre-emergence action against VIOTR in % (VIOTR [9]; dosage 80 g/ha) [%]	Pre-emergence action against DIGSA in % (DIGSA [10]; dosage 20 g/ha) [%]	Pre-emergence action against DIGSA in % (DIGSA [10]; dosage 80 g/ha) [%]	Post-emergence action against ABUTH in % (ABUTH [11]; dosage 20 g/ha) [%]	Post-emergence action against ALOMY in % (ALOMY [12]) [%]	Post-emergence action at 20 g/ha against AMARE in % (AMARE [13]) [%]	Post-emergence action at 20 g/ha against AVEFA in % (AVEFA [14]) [%]	Post-emergence action against MATIN in % (MATIN [16]; dosage 5 g/ha) [%]	other results
CCn1nnnc1NC(=O)c1ccc(C(F)(F)F)c(C(=O)NC(C)C2CC2)c1C (centres unmarked) [Example 2-31]	100	100	80	100	100	100	100	100	80	80	100	100	100	100	100	80	80	80	80	80	Pre-emergence action against AVEFA in % (AVEFA [4]): 100%; Pre-emergence action against POLCO in % (POLCO; dosage 20 g/ha): 80%; Post-emergence action against ECHCG in % (ECHCG [15]; dosage 5 g/ha): 80%; Post-emergence action against ECHCG in % (ECHCG [15]; dosage 20 g/ha): 90%; Post-emergence action against MATIN in % (MATIN [16]; dosage 20 g/ha): 80%; Post-emergence action against PHBPU in % (PHBPU [17]; dosage 5 g/ha): 80%; Post-emergence action against PHBPU in % (PHBPU [17]; dosage 20 g/ha): 90%; Post-emergence action against VERPE in % (VERPE [18]; 20 g/ha): 80%; Post-emergence action against DIGSA (DIGSA [19]): 80%
CCc1c(C(=O)Nc2nnnn2CC)ccc(C(F)(F)F)c1C(=O)NC [Example 2-271]	100	100	80	100	100	100	100	100	100	80	100	100	100	100	100	100	100	100	80	100	Pre-emergence action against SETVI in % (SETVI [8]; dosage 20 g/ha): 100%; Pre-emergence action against VERPE in % (VERPE [20]): 100%; Post-emergence action against ABUTH in % (ABUTH [11]; dosage 5 g/ha): 100%; Post-emergence action against MATIN in % (MATIN [16]; dosage 20 g/ha): 100%; Post-emergence action against SETVI in % (SETVI [21]; dosage 5 g/ha): 100%; Post-emergence action against SETVI in % (SETVI [21]; dosage 20 g/ha): 100%; Post-emergence action against VERPE in % (VERPE [18]; 5 g/ha): 80%; Post-emergence action against VERPE in % (VERPE [18]; 20 g/ha): 90%; Post-emergence action against VIOTR in % (VIOTR [22]; 5 g/ha): 80%; Post-emergence action against VIOTR in % (VIOTR [22]; 20 g/ha): 80%

— patent US12655116B2, “Substituted isophthalic acid diamides” (Bayer Aktiengesellschaft, priority 2020, dated 2026)
